ALP activity data for 1 molecule are collected here from US20190076440A1, “TREATMENT OF TISSUE DISORDERS” (priority 2016, published 2019).

The structures appear in SMILES notation.

For the assay, the system named is wild type (+/+) and Col1a2 p.G610C (+/-) mice osteoblast cells. As to the kind of experiment: Alkaline phosphatase activity assay in osteoblasts. It counts as cell-based, mouse. The following applies: 7 days in osteogenic differentiation media. The protocol:
Osteoblasts were cultured for 7 days in osteogenic differentiation media prior to fixation and staining. Photographs of 12-well plate wells containing wild type (+/+) and Col1a2 p.G610C (+/−) mice osteoblast cells untreated (DMSO) or treated with CBZ; and
The effects of CBZ were studied on Calvarial osteoblasts from Col1a2 p.G610C mice lines (Osteogenesis Imperfecta mouse model).
For testing of Alkaline phosphatase activity wild type (+/+) and heterozygous ((+/−) from Col1 a2 p.G610C mice) osteoblasts were cultured for 7 days in osteogenic differentiation media and with DMSO (control) or CBZ prior to fixation and staining with an Alkaline phosphate staining kit as per the manufactures instructions.

With `NC(=O)N1c2ccccc2C=Cc2ccccc21` [CBZ, Carbamazepine], the ALP activity result is “No change” (OI model (Col1a2 p.G610C +/-) osteoblasts) and “No change” (wild type osteoblasts).
